Source: patent US6274715A, “Tricyclic erythromycin derivatives” (priority 1997, dated 2001)
In brackets after ≈: the same amount, converted by molar mass.

Key:
Type in all cases: cell-based
[1] = tested on: STREPTOCOCCUS PYOGENES EES61; test: In vitro antibacterial activity, MIC, BHI agar dilution; details: S. pyogenes EES61, unit assumed
[2] = tested on: STAPHYLOCOCCUS AUREUS A-5278; test: as above; details: S. aureus A-5278, unit assumed
[3] = tested on: PSEUDOMONAS AERUGINOSA K799/WT; test: as above; details: P. aeruginosa K799/WT, unit assumed
[4] = tested on: STREPTOCOCCUS PYOGENES PIU 2548; test: as above; details: S. pyogenes PIU 2548, unit assumed
[5] = tested on: MYCOBACTERIUM SMEGMATIS ATCC 114; test: as above; details: M. smegmatis ATCC 114, unit assumed
[6] = tested on: STAPHYLOCOCCUS AUREUS 1775; test: as above; details: S. aureus 1775, unit assumed
ESCHERICHIA COLI H560 = test: as above; details: E. coli H560, unit assumed
ESCHERICHIA COLI SS = test: as above; details: E. coli SS, unit assumed
[7] = tested on: ACINETOBACTER CALCOACETICUS CMX 669; test: as above; details: A. calcoaceticus CMX 669, unit assumed
[8] = tested on: STREPTOCOCCUS BOVIS A-5169; test: as above; details: S. bovis A-5169, unit assumed
PSEUDOMONAS CEPACIA 296I = test: as above; details: P. cepacia 296I, unit assumed
[9] = tested on: STAPHYLOCOCCUS AUREUS CMX 553; test: as above; details: S. aureus CMX 553, unit assumed
ESCHERICHIA COLI JUHL = details: E. coli JUHL; BHI agar; unit assumed
[10] = tested on: STAPHYLOCOCCUS AUREUS A5177; test: In vitro antibacterial activity, MIC, BHI agar dilution; details: S. aureus A5177, unit assumed
[11] = tested on: PSEUDOMONAS AERUGINOSA BMH10; test: as above; details: P. aeruginosa BMH10, unit assumed
[12] = tested on: STAPHYLOCOCCUS AUREUS ATCC 6538P; test: as above; details: S. aureus ATCC 6538P, 35-37° C., 20 to 24 hours, unit assumed
ESCHERICHIA COLI DC-2 = test: as above; details: E. coli DC-2, unit assumed
[13] = tested on: PSEUDOMONAS AERUGINOSA K799/61; test: as above; details: P. aeruginosa K799/61, unit assumed
[14] = tested on: PSEUDOMONAS AERUGINOSA DPHD-5263; test: as above; details: P. aeruginosa DPHD-5263, unit assumed
[15] = tested on: STAPHYLOCOCCUS AUREUS CMX 642A; test: as above; details: S. aureus CMX 642A, unit assumed
[16] = tested on: STREPTOCOCCUS PYOGENES 930; test: as above; details: S. pyogenes 930, unit assumed
[17] = tested on: ENTEROBACTER AEROGENES ATCC 13048; test: as above; details: E. aerogenes ATCC 13048, unit assumed
EN[…] ATCC 8043 = test: as above; details: E. faecium ATCC 8043, unit assumed
Outline: (§1)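 MIC was read visually as the lowest drug concentration showing no growth, a slight haze or sparsely isolated colonies relative to a compound-free BHI plate. Plates held serial aqueous dilutions in BHI agar, were spot-inoculated with 1:100 (or 1:10) culture dilutions and incubated 20 to 24 hours at 35-37° C.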

M[…] ATCC 4698 = test: as above; details: M. luteus ATCC 4698, unit assumed
Outline: as §1

M[…] ATCC 9341 = test: as above; details: M. luteus ATCC 9341, unit assumed
Outline: as §1

STR[…] 508 = test: as above; details: S. agalactiae CMX 508, unit assumed
Outline: as §1

CANDIDA ALBICANS CCH 442 = test: as above; details: C. albicans CCH 442, unit assumed
[18] = tested on: STAPHYLOCOCCUS EPIDERMIDIS 3519; details: S. epidermidis 3519; BHI agar; unit assumed
[19] = tested on: PSEUDOMONAS AERUGINOSA 5007; test: In vitro antibacterial activity, MIC, BHI agar dilution; details: P. aeruginosa 5007, unit assumed
[20] = tested on: PROVIDENCIA STUARTII CMX 640; details: P. stuartii CMX 640; BHI agar; unit assumed
[21] = tested on: STAPHYLOCOCCUS AUREUS NCTC10649M; test: In vitro antibacterial activity, MIC, BHI agar dilution; details: S. aureus NCTC10649M, unit assumed
ESCHERICHIA COLI KNK 437 = details: E. coli KNK 437; BHI agar; unit assumed
[22] = tested on: KLEBSIELLA PNEUMONIAE ATCC 8045; test: In vitro antibacterial activity, MIC, BHI agar dilution; details: K. pneumoniae ATCC 8045, unit assumed
[23] = tested on: PSEUDOMONAS AERUGINOSA DPHD-2862; test: as above; details: P. aeruginosa DPHD-2862, unit assumed

| SMILES | MIC [1] | MIC [2] | MIC [3] | MIC [4] | MIC [5] | MIC [6] | MIC (ESCHERICHIA COLI H560) | MIC (ESCHERICHIA COLI SS) | MIC [7] | MIC [8] | MIC (PSEUDOMONAS CEPACIA 296I) | MIC [9] | MIC (ESCHERICHIA COLI JUHL) | MIC [10] | MIC [11] | MIC [12] | MIC (ESCHERICHIA COLI DC-2) | MIC [13] | MIC [14] | MIC [15] | further results |
| --- | --- | --- | --- | --- | --- | --- | --- | --- | --- | --- | --- | --- | --- | --- | --- | --- | --- | --- | --- | --- | --- |
| CC[C@H]1OC(=O)[C@H](C)C(=O)[C@H](C)[C@@H](O[C@@H]2O[C@H](C)C[C@H](N(C)C)[C@H]2O)[C@](C)(OC)C[C@@H](C)C2=N[C@@H]3CN(Cc4ccc(Cl)cc4)C[C@@H]3N3C(=O)O[C@@]1(C)[C@H]3[C@H]2C [Example 24] | 0.05 µg/mL (≈ 0.0622 µM) | > 100 µg/mL | > 100 µg/mL | 0.78 µg/mL (≈ 0.971 µM) | 1.56 µg/mL (≈ 1.94 µM) | > 100 µg/mL | > 100 µg/mL | 6.2 µg/mL (≈ 7.72 µM) | > 100 µg/mL | 0.05 µg/mL (≈ 0.0622 µM) | > 100 µg/mL | 0.78 µg/mL (≈ 0.971 µM) | > 100 µg/mL | 0.78 µg/mL (≈ 0.971 µM) | > 100 µg/mL | 0.78 µg/mL (≈ 0.971 µM) | > 100 µg/mL | 6.2 µg/mL (≈ 7.72 µM) | > 100 µg/mL | 0.78 µg/mL (≈ 0.971 µM) | MIC [16]: 100 µg/mL (≈ 124 µM); MIC [17]: > 100 µg/mL; MIC (EN[…] ATCC 8043): 0.2 µg/mL (≈ 0.249 µM); MIC (M[…] ATCC 4698): 0.78 µg/mL (≈ 0.971 µM); MIC (M[…] ATCC 9341): 0.2 µg/mL (≈ 0.249 µM); MIC (STR[…] 508): 0.2 µg/mL (≈ 0.249 µM); MIC (CANDIDA ALBICANS CCH 442): > 100 µg/mL; MIC [18]: 0.78 µg/mL (≈ 0.971 µM); MIC [19]: > 100 µg/mL; MIC [20]: > 100 µg/mL; MIC [21]: 0.78 µg/mL (≈ 0.971 µM); MIC (ESCHERICHIA COLI KNK 437): > 100 µg/mL; MIC [22]: > 100 µg/mL; MIC [23]: > 100 µg/mL |
| CC[C@H]1OC(=O)[C@H](C)C(=O)[C@H](C)[C@@H](O[C@@H]2O[C@H](C)C[C@H](N(C)C)[C@H]2O)[C@](C)(OC)C[C@@H](C)C2=N[C@@H]3CN(Cc4ccncc4)C[C@@H]3N3C(=O)O[C@@]1(C)[C@H]3[C@H]2C [Example 25] | 0.05 µg/mL (≈ 0.0649 µM) | > 100 µg/mL | 100 µg/mL (≈ 130 µM) | 0.78 µg/mL (≈ 1.01 µM) | 3.1 µg/mL (≈ 4.03 µM) | > 100 µg/mL | 100 µg/mL (≈ 130 µM) | 0.78 µg/mL (≈ 1.01 µM) | 100 µg/mL (≈ 130 µM) | 0.1 µg/mL (≈ 0.13 µM) | > 100 µg/mL | 0.78 µg/mL (≈ 1.01 µM) | > 100 µg/mL | 0.78 µg/mL (≈ 1.01 µM) | > 100 µg/mL | 0.78 µg/mL (≈ 1.01 µM) | > 100 µg/mL | 0.78 µg/mL (≈ 1.01 µM) | > 100 µg/mL | 0.78 µg/mL (≈ 1.01 µM) | MIC [16]: > 100 µg/mL; MIC [17]: > 100 µg/mL; MIC (EN[…] ATCC 8043): 0.1 µg/mL (≈ 0.13 µM); MIC (M[…] ATCC 4698): 0.39 µg/mL (≈ 0.507 µM); MIC (M[…] ATCC 9341): 0.1 µg/mL (≈ 0.13 µM); MIC (STR[…] 508): 0.1 µg/mL (≈ 0.13 µM); MIC (CANDIDA ALBICANS CCH 442): > 100 µg/mL; MIC [18]: 0.78 µg/mL (≈ 1.01 µM); MIC [19]: > 100 µg/mL; MIC [20]: > 100 µg/mL; MIC [21]: 0.39 µg/mL (≈ 0.507 µM); MIC (ESCHERICHIA COLI KNK 437): > 100 µg/mL; MIC [22]: > 100 µg/mL; MIC [23]: > 100 µg/mL |
